Source: patent publication US20260335323A1, “CHIMERIC MOLECULE” (UCL Business Ltd, priority 2023, published 2026)

tested on: LC3; experiment: Western blot, LC3I:LC3II ratio in PANC-1 cells; format: cell-based, human
Source text: FIG. 2. BL-918 is a potent ULK1 agonist and autophagy inducer (A) Representative images of PANC-1 cells stably expressing the mCherry-EGFP-LC3 tandem reporter treated with ULK1 agonists. Nuclei stained with Hoechst 33342, autophagosomes are shown in the EGFP channel and autolysosomes in the mCherry channel. Fold change in the number of autophagosomes (B) and autolysosomes (C) puncta in ULK1 agonist treated cells. (D) Western blot of PANC-1 cells treated with DMSO, bafilomycin and ULK1 agonists±bafilomycin; probed for p-ULK1 (S317), ULK1, p62, b-actin, LC3-I and LC3-II. Quantifications of western blot for changes in the ratio of p-ULK1 (S317):ULK1 (E), p62 (F) and LC31:LC3II (G). All data shown are mean±SEM, n=3, *p<0.05, ** p<0.01, one-way ANOVA with Dunnett's multiple comparisons test.
FIG. 4. ULKTACs retain ULK1 agonist activity and subsequent induction of autophagy (A) Western blot of PANC-1 cells treated with ULKTACs±bafilomycin, probed for p-ULK1 (S317), ULK1, p62, b-Actin, LC31 and LC3II. Quantifications of (A) for the pULK1:ULK1 ratio (B) LC3I:LC3II ratio (C) and changes in p62 (D). (E) Representative images of PANC-1 cells stably expressing the mCherry-EGFP-LC3 tandem reporter treated with ULKTACs w/or w/o bafilomycin. Nuclei stained with Hoechst 33342, autophagosomes are shown in the EGFP channel and autolysosomes in the mCherry channel. […]
Cells were homogenised in protein lysis buffer consisting of 0.1 M Tris pH 8.0, 0.1 M NaCl, 5% glycerol, IGEPAL® CA-630 (#18896. Sigma-Aldrich) and 5 mM EDTA, 0.1 M N-ethyl maleimide (ThermoFisher, #23030) and protease inhibitor (Cell Signalling Technologies, #5871). Protein concentrations were determined using the BCA assay to ensure equal loading. […]
Membranes were then incubated with horseradish peroxidase (HRP)-conjugated secondary antibodies (Rabbit #7074 and Mouse #7076) purchased from Cell Signalling Technologies for 1 hour and the HRP signal was detected using EZ-ECL Enhanced Chemiluminescence Detection Kit for HRP (#20-500-500, Sartorius), and imaged with an Alliance Q9 Advanced (UVITec). […]

| Structure (SMILES) | LC31: LC3II ratio |
| --- | --- |
| O=C(Nc1ccc(F)cc1F)[C@H](NC(=S)Nc1cc(C(F)(F)F)cc(C(F)(F)F)c1)c1ccccc1 [BL-918, reference compound] | increases in the LC31: LC3II ratio |
| O=C(Nc1cc(C(F)(F)F)cc(C(F)(F)F)c1)N[C@@H](C(=O)Nc1ccc(F)cc1F)c1ccc(OCc2cn(CCOCCOCCNC(=O)C(=O)c3c(-c4ccccc4)[nH]c4ccccc34)nn2)cc1 [NZ-65, (R)-2-(3-(3,5-bis(trifluoromethyl)phenyl)ureido)-N-(2,4-difluorophenyl)-2-(4-((1-(2-(2-(2-(2-oxo-2-(2-phenyl-1H-indol-3-yl)acetamido)ethoxy)ethoxy)ethyl)-1H-1,2,3-triazol-4-yl)methoxy)phenyl) acetamide] | increases in the LC31: LC3II ratio |
| O=C(Nc1cc(C(F)(F)F)cc(C(F)(F)F)c1)N[C@@H](C(=O)Nc1ccc(F)cc1F)c1ccc(OCc2cn(CCCCCCNC(=O)C(=O)c3c(-c4ccccc4)[nH]c4ccccc34)nn2)cc1 [NZ-66, (R)-2-(3-(3,5-bis(trifluoromethyl)phenyl)ureido)-N-(2,4-difluorophenyl)-2-(4-((1-(6-(2-oxo-2-(2-phenyl-1H-indol-3-yl)acetamido)hexyl)-1H-1,2,3-triazol-4-yl)methoxy)phenyl) acetamide] | increases in the LC31: LC3II ratio |
